{"source": "patent US20250076286A1", "about": "“GENERATION OF NEURAL ORGANIZER ORGANOIDS AND MIDLINE ASSEMBLOIDS FROM HUMAN PLURIPOTENT STEM CELLS” (The Board of Trustees of the Leland Stanford Junior …, priority 2022, published 2025)", "molecules": {"B1": {"name": "SLIT-2: repulsive axon guidance cue, purified FP-secreted protein (protein, UniProt O94813 31-1529, looked up)", "Slit homolog 2 protein": "QCSCSGSTVDCHGLALRSVPRNIPRNTERLDLNGNNITRITKTDFAGLRHLRVLQLMENKISTIERGAFQDLKELERLRLNRNHLQLFPELLFLGTAKLYRLDLSENQIQAIPRKAFRGAVDIKNLQLDYNQISCIEDGAFRALRDLEVLTLNNNNITRLSVASFNHMPKLRTFRLHSNNLYCDCHLAWLSDWLRQRPRVGLYTQCMGPSHLRGHNVAEVQKREFVCSGHQSFMAPSCSVLHCPAACTCSNNIVDCRGKGLTEIPTNLPETITEIRLEQNTIKVIPPGAFSPYKKLRRIDLSNNQISELAPDAFQGLRSLNSLVLYGNKITELPKSLFEGLFSLQLLLLNANKINCLRVDAFQDLHNLNLLSLYDNKLQTIAKGTFSPLRAIQTMHLAQNPFICDCHLKWLADYLHTNPIETSGARCTSPRRLANKRIGQIKSKKFRCSAKEQYFIPGTEDYRSKLSGDCFADLACPEKCRCEGTTVDCSNQKLNKIPEHIPQYTAELRLNNNEFTVLEATGIFKKLPQLRKINFSNNKITDIEEGAFEGASGVNEILLTSNRLENVQHKMFKGLESLKTLMLRSNRITCVGNDSFIGLSSVRLLSLYDNQITTVAPGAFDTLHSLSTLNLLANPFNCNCYLAWLGEWLRKKRIVTGNPRCQKPYFLKEIPIQDVAIQDFTCDDGNDDNSCSPLSRCPTECTCLDTVVRCSNKGLKVLPKGIPRDVTELYLDGNQFTLVPKELSNYKHLTLIDLSNNRISTLSNQSFSNMTQLLTLILSYNRLRCIPPRTFDGLKSLRLLSLHGNDISVVPEGAFNDLSALSHLAIGANPLYCDCNMQWLSDWVKSEYKEPGIARCAGPGEMADKLLLTTPSKKFTCQGPVDVNILAKCNPCLSNPCKNDGTCNSDPVDFYRCTCPYGFKGQDCDVPIHACISNPCKHGGTCHLKEGEEDGFWCICADGFEGENCEVNVDDCEDNDCENNSTCVDGINNYTCLCPPEYTGELCEEKLDFCAQDLNPCQHDSKCILTPKGFKCDCTPGYVGEHCDIDFDDCQDNKCKNGAHCTDAVNGYTCICPEGYSGLFCEFSPPMVLPRTSPCDNFDCQNGAQCIVRINEPICQCLPGYQGEKCEKLVSVNFINKESYLQIPSAKVRPQTNITLQIATDEDSGILLYKGDKDHIAVELYRGRVRASYDTGSHPASAIYSVETINDGNFHIVELLALDQSLSLSVDGGNPKIITNLSKQSTLNFDSPLYVGGMPGKSNVASLRQAPGQNGTSFHGCIRNLYINSELQDFQKVPMQTGILPGCEPCHKKVCAHGTCQPSSQAGFTCECQEGWMGPLCDQRTNDPCLGNKCVHGTCLPINAFSYSCKCLEGHGGVLCDEEEDLFNPCQAIKCKHGKCRLSGLGQPYCECSSGYTGDSCDREISCRGERIRDYYQKQQGYAACQTTKKVSRLECRGGCAGGQCCGPLRSKRRKYSFECTDGSSFVDEVEKVVKCGCTRCVS"}}, "format_in_all_cases": "cell-based, human", "key": {"[1]": {"tested_on": "hiPSC cell-derived floor plate organoids (hFpO)", "test": "Quantification of FOXA2 positive floor plate cells by immunofluorescence microscopy", "details": "hFpO induced with 5 μM SAG day 1 to day 6 plus dual SMAD inhibitors, EGF, FGF2, RA; controls without SAG showed no induction", "description": "For the generation of 3D floor plate organoids, hiPSC cells were incubated with Accutase® (Innovative Cell Technologies, AT104) at 37° C. for 7 min and dissociated into single cells. To obtain uniformly sized organoids, AggreWell-800 (STEMCELL Technologies, 34815) containing 300 microwells was used. Approximately 3×10^6 single cells were added per AggreWell-800 well in Essential 8 medium supplemented with the ROCK inhibitor Y27632 (10 mM, Selleckchem, S1049), centrifuged at 100 g for 3 min to capture the cells in the microwells, and incubated at 37° C. with 5% CO2. After 24 h, organoids consisting of approximately 10,000 cells were collected from each microwell by pipetting medium in the well up and down with a cut P1000 pipet tip and transferred into ultra-low attachment plastic dishes (Corning, 3262) in 20% knockout serum medium (KOSR) supplemented with two SMAD pathway inhibitors dorsomorphin (2.5 mM, Sigma-Aldrich, P5499) and SB-431542 (10 mM, R&D Systems, 1614) for the first 5 days.\nFor floor plate induction: SAG, FGF2, and retinoic acid was added to the medium starting on day 1 and CHIR was added to the media beginning on day 2 until day 7. The 20% KOSR medium was changed every day and supplemented with the respective small molecules and growth factors (FIG. 1). […]"}, "[2]": {"tested_on": "hFpO-hNtO midline assembloids", "test": "hFpO-induced ventralization of hNtO in midline assembloids (immunofluorescence staining)", "description": "Cryoprotection and immunofluorescence staining. hFpO, hNtO and midline assembloids were fixed in 4% paraformaldehyde (PFA)/phosphate buffered saline (PBS) for 1-2 hours on a rocker at 4° C. They were then washed in PBS and transferred to 30% sucrose/PBS overnight until the organoids/assembloids sink in the solution. Subsequently, they were rinsed in optimal cutting temperature (OCT) compound (Tissue-Tek OCT Compound 4583, Sakura Finetek) and embedded. For immunofluorescence staining, 20 μm-thick sections were cut using a Leica Cryostat (Leica, CM1850). Cryosections were blocked in 0.3% Triton X-100 (Millipore Sigma, T9284-100ML), 1% BSA diluted in PBS for 1 h at room temperature. The sections were then incubated overnight at 4° C. with primary antibodies diluted in PBS containing 1% BSA, 0.1% Triton X-100. Samples were then rinsed 3× and incubated for 30 minutes in 1% BSA, 0.1% Triton X-100. Cryosections were then incubated with secondary antibodies in block 1 h. The following primary antibodies were used for staining: anti-FOXA2 (rabbit, Abcam), anti-NKX2.2 (mouse, DSHB, sc-517261), anti-NKX6.1 (mouse, DSHB), LMX1A (rabbit, HPA030088, Atlas antibodies), TFAP2A. Alexa Fluor dyes (Life Technologies) were used at 1:1000 dilution, and nuclei were visualized with Hoechst 33258 (Life Technologies, H3549). Cryosections were mounted for microscopy on glass slides using Aquamount (Polysciences, 18606), and imaged on a Zeiss M1 Axioscope or EVOS microscope. Images were processed in Fiji (NIH).\nGeneration of neural tube organoids or organoids (hNtO) and midline assembloids (hNtO-hFpO). To generate hNtO, organoids were generated using the Aggrewell method previously described. The 20% KOSR medium was changed every day and supplemented with dorsomorphin and SB-431542 for 5 Days. On day 6 in suspension, the organoids were transferred to 20% KOSR supplemented with EGF, FGF2, CHIR and retinoic acid. On day 7, hNtO were dissociated and seeded as previously described in ultra-low attachment 96 well plates. […]"}, "[3]": {"tested_on": "dorsal interneuron axon extension in dhSpOs", "test": "Axon extension response of dhSpO dorsal interneurons to purified FP-secreted proteins", "details": "for sensitivity to repulsive axon guidance cue / chemorepulsion: ROBO3 KO neurites", "description": "Differentiation of dorsal human spinal organoids (hSpO) and midline assembloids (dhSpO-hFpO-dhSpO) to study crossing of commissural projections. Aggregates of hiPSC cells were generated and collected as previously described in hFpO and hNtO protocols and transferred to poly-HEMA coated 10 cm dishes in Essential 6 medium (Thermo Fisher Scientific, A1516401) supplemented with two SMAD pathway inhibitors-dorsomorphin (2.5 mM, Sigma-Aldrich, P5499) and SB-431542 (10 mM, R&D Systems, 1614). For the first 5 d, Essential 6 medium was changed every day and supplemented with dorsomorphin and SB-431542. To generate hSpO, on day 6 in suspension the organoids were transferred to neural medium containing Neurobasal™-A Medium (Thermo Fisher Scientific, 10888022), B-27™ Supplement, minus vitamin A (Thermo Fisher Scientific, 12587010), GlutaMAX™ Supplement (1:100, Thermo Fisher Scientific, 35050079), Penicillin-Streptomycin (1:100, Thermo Fisher Scientific, 15070063), and supplemented with EGF, CHIR and RA. From day 19, to promote differentiation of the neural progenitors into neurons, the neural medium was supplemented with brain-derived neurotrophic factor (BDNF; 20 ng/ml, PeproTech, 450-02), IGF, AA, and 5′-cyclic monophosphate sodium salt (cAMP; 100 mM, Millipore Sigma, D0627). From this point on medium was changed every other day.\nTo validate the functionality of floor plate mechanisms that coordinate midline crossing, =isogenic KO hiPS cell lines targeting ROBO3 (an essential gene for midline crossing) with the CRISPR/Cas9 system were generated. Three sgRNAs targeting an early exon of a specific gene were designed and synthesized by Synthego to induce one deletion. Human iPSCs were dissociated with accutase and 0.5 million cells were mixed with 300 pmol sgRNAs and 40 pmol Cas9 protein (Synthego, SpCas9 2NLS Nuclease ([…])). Nucleofection was performed using the P3 Primary Cell 4D-NucleofectorTMX Kit L (Lonza, V4XP-3032), a 4D-nucleofector core unit and the X unit (Lonza) (program CA-137). […]"}, "[4]": {"details": "cyclopamine added the same day of fusion and in subsequent feeds, hFpO-hNtO assembloid"}}, "data": [{"molecule": "CNC1CCC(N(Cc2cccc(-c3ccncc3)c2)C(=O)c2sc3ccccc3c2Cl)CC1", "note": "(stereo not shown) [SAG]", "values": [{"measurement": "percent of positive floor plate cells (FOXA2 marker)", "setting": "[1]", "value": "90-99%"}]}, {"molecule": "CC1=C2C[C@H]3[C@@H](CC=C4C[C@@H](O)CC[C@@]43C)[C@@H]2CC[C@]12O[C@@H]1C[C@H](C)CN[C@H]1[C@H]2C", "note": "[cyclopamine]", "values": [{"measurement": "FOXA2 expression in hFpO", "setting": "[2]; [4]", "value": "abolished"}, {"measurement": "NKX2.2 induction in hNtO", "setting": "[2]; [4]", "value": "abolished"}, {"measurement": "hFpO induced ventralization (NKX2.2, FOXA2, NKX6.1)", "setting": "[2]; in the presence of cyclopamine, FIG. 5E-G", "value": "completely abolished"}]}, {"molecule": "B1", "values": [{"measurement": "sensitivity to repulsive axon guidance cue / chemorepulsion", "setting": "[3]", "value": "increased sensitivity and chemorepulsion"}, {"measurement": "sensitivity to repulsive axon guidance cue / chemorepulsion", "setting": "[3]; listed as Slit-2", "value": "Increased sensitivity"}, {"measurement": "sensitivity to repulsive axon guidance cue", "setting": "[3]; wildtype dorsal interneurons", "value": "largely insensitive"}]}]}
